Data on five molecules can be found in ChEMBL document CHEMBL3217720, “Identification of an inhibitor of the ubiquitinproteasome system that induces accumulation of polyubiquitinated proteins in the absence of blocking of proteasome function” (Medchemcomm, 2014).

As a reminder, the IC50 is the concentration needed to halve the response being measured. Read a low IC50 as greater potency.

Calls of active or inactive are those of the source. The calls are words filed in the database; no cut-off is given here.

The subject of assay [1] is MelJuSo UbG76V-YFP. The assay can be described thus: Inhibition of Ubiquitin-proteasome system in human MelJuSo UbG76V-YFP cells assessed as accumulation of UbG76V-YFP protein at 5 to 10 uM after 18 hrs by immunoblot method. Format: cell-based. On the technique in general: Immunoblotting shows a protein as a band on a membrane.
Assay [2] deals with MelJuSo UbG76V-YFP. The assay can be described thus: Inhibition of Ubiquitin-proteasome system in human MelJuSo UbG76V-YFP cells assessed as accumulation of K48-linked poly-ubiquitinated proteins at 5 to 10 uM after 18 hrs by immunoblot method. Format: cell-based.
In assay [3] the test system is MelJuSo UbG76V-YFP. The assay can be described thus: Inhibition of Ubiquitin-proteasome system in human MelJuSo UbG76V-YFP cells assessed as Hmox-1 accumulation 5 to 10 uM after 18 hrs by immunoblot method. Format: cell-based.
For assay [4], the system named is MelJuSo UbG76V-YFP. The assay can be described thus: Inhibition of Ubiquitin-proteasome system in human MelJuSo UbG76V-YFP cells assessed as HSP70B' accumulation 5 to 10 uM after 18 hrs by immunoblot method. The class given is cell-based.
The test system of another assay is Kasumi 1. The assay can be described thus: Cytotoxicity against human Kasumi-1 cells after 3 days by FMCA method. The class given is functional, cell-based. Conditions: Kasumi 1, 72 h.
Assay [5] concerns MelJuSo UbG76V-YFP. Nature of the assay: Inhibition of Ubiquitin-proteasome system in human MelJuSo UbG76V-YFP cells assessed as accumulation of UbG76V-YFP protein at 50 uM after 18 hrs by immunoblot method. Format: cell-based.
Assay [6] can be described thus: Cytotoxicity against human MelJuSo cells after 3 days by FMCA method. Format: functional, cell-based. Conditions: MEL-JUSO, 72 h.
A short description of assay [7]: (§1) Cytotoxicity against human CLL cells after 3 days by FMCA method. Conditions: 72 h. The class given is functional, cell-based.
The target of assay [8] is T1, 26S proteasome (Homo sapiens) (UniProt Q99460+P49721+P20618+P28074+P28062+P28065+P28072+O00487+P25786+P25787+P25788+P25789+P28066+P60900+O14818+Q8TAA3+P40306+A5LHX3+P49720+P28070+Q99436+Q16186+P35998+P62191+P43686+P62333+P17980+P62195+Q13200+O43242+O00232+O00231+Q15008+P51665+Q9UNM6+P55036+P48556+P60896). Nature of the assay: Inhibition of erythrocyte 20S proteasome (unknown origin) assessed as inhibition of chymotrypsin activity at 50 uM after 15 mins using Suc-LLVY-AMC substrate by fluorescence assay. The class given is protein-complex assay.

The test system of another assay is HL-60. The assay can be described thus: Cytotoxicity against human HL60 cells after 3 days by FMCA method. Format: functional, cell-based. The settings on record: HL-60, 72 h.
A short description of assay [9]: Cytotoxicity against human NCI-H929 cells after 3 days by FMCA method. The class given is functional, cell-based. The settings on record: NCI-H929, 72 h.
Assay [10] is described as follows: (§2) Cytotoxicity against human Pseudomyxoma peritonei cells after 3 days by FMCA method. The settings on record: 72 h. Format: functional, cell-based.
The test system of another assay is HCT-116. The assay can be described thus: Cytotoxicity against human HCT116 cells after 3 days by FMCA method. Format: functional, cell-based. Conditions: HCT-116, 72 h.
Assay [11] can be described thus: Cytotoxicity against human RPMI18226 cells after 3 days by FMCA method. The class given is functional, cell-based. The settings on record: RPMI18226, 72 h.
For the next assay, the system named is CCRF-CEM. The assay can be described thus: Cytotoxicity against human CCRF-CEM cells after 3 days by FMCA method. Format: functional, cell-based. The settings on record: 72 h.
Assay [12] deals with MelJuSo UbG76V-YFP. Nature of the assay: Inhibition of Ubiquitin-proteasome system in human MelJuSo UbG76V-YFP cells assessed as accumulation of UbG76V-YFP protein at 5 uM after 18 hrs by immunoblot method. The class given is cell-based.
Assay [13] has as its system MelJuSo UbG76V-YFP. Nature of the assay: Inhibition of Ubiquitin-proteasome system in human MelJuSo UbG76V-YFP cells assessed as accumulation of UbG76V-YFP protein at 5 uM. Format: cell-based.
Assay [14] can be described thus: Cytotoxicity against human 8226/DOX40 cells after 3 days by FMCA method. Conditions: 72 h. Format: functional, cell-based.
Assay [15] deals with MelJuSo UbG76V-YFP. Nature of the assay: Inhibition of Ubiquitin-proteasome system in human MelJuSo UbG76V-YFP cells assessed as HSP70B' accumulation 5 to 20 uM after 18 hrs by immunoblot method. Format: cell-based.
The target of assay [16] is T1, 26S proteasome (Homo sapiens). The assay can be described thus: Inhibition of erythrocyte 20S proteasome (unknown origin) assessed as inhibition of chymotrypsin activity at 10 uM after 15 mins using Suc-LLVY-AMC substrate by fluorescence assay. The class given is protein-complex assay.
Assay [17] has as its system MelJuSo UbG76V-YFP. Nature of the assay: Inhibition of Ubiquitin-proteasome system in human MelJuSo UbG76V-YFP cells assessed as HSP70B' accumulation 50 uM after 18 hrs by immunoblot method. Format: cell-based.
Assay [18] has as its system MelJuSo UbG76V-YFP. The assay can be described thus: Inhibition of Ubiquitin-proteasome system in human MelJuSo UbG76V-YFP cells assessed as accumulation of K48-linked poly-ubiquitinated proteins at 5 to 100 uM after 18 hrs by immunoblot method. The class given is cell-based.
In assay [19] the test system is MelJuSo UbG76V-YFP. The assay can be described thus: Inhibition of Ubiquitin-proteasome system in human MelJuSo UbG76V-YFP cells assessed as p21 accumulation 20 to 50 uM after 18 hrs by immunoblot method. Format: cell-based.
For assay [20], the system named is MelJuSo UbG76V-YFP. The assay can be described thus: Inhibition of Ubiquitin-proteasome system in human MelJuSo UbG76V-YFP cells assessed as accumulation of K48-linked poly-ubiquitinated proteins at 5 uM by immunoblot method. Format: cell-based.
A further assay concerns HEK293. Nature of the assay: Inhibition of Ubiquitin-proteasome system in human HEK293 cells assessed as accumulation of ornithine decarboxylase-green fluorescent fusion protein at 5 uM after 16 hrs. The class given is cell-based.
Assay [21] is described as follows: (§3) Cytotoxicity against human Colon cancer cells after 3 days by FMCA method. Conditions: Cancer cell lines, 72 h. The class given is functional, cell-based.
Assay [22] concerns MelJuSo UbG76V-YFP. Nature of the assay: Inhibition of Ubiquitin-proteasome system in human MelJuSo UbG76V-YFP cells assessed as accumulation of K48-linked poly-ubiquitinated proteins at 10 uM after 18 hrs by immunoblot method. The class given is cell-based.
The target in assay [23] is T1, 26S proteasome (Homo sapiens). Conditions: MelJuSo UbG76V-YFP, 0.1 uM.
Description: Inhibition of 20S proteasome in human MelJuSo UbG76V-YFP cells assessed as accumulation of K48-linked poly-ubiquitinated proteins at 0.1 uM after 6 hrs by immunoblot method
The test system of another assay is CLL. Described as §1. Format: functional, cell-based.
For another assay, the species on record is Homo sapiens. Described as §2. The class given is functional, cell-based.
Assay [24] has as its target T1, 26S proteasome (Homo sapiens). Conditions: MelJuSo UbG76V-YFP, 0.1 uM. The source holds these as a separate data set.
Description: Inhibition of 20S proteasome in human MelJuSo UbG76V-YFP cells assessed as accumulation of UbG76V-YFP protein at 0.1 uM after 6 hrs by immunoblot method
For a further assay, the system named is Cancer cell lines. The description is as §3. Format: functional, cell-based.

As for `CC1(C)C(N(O)C(=O)Nc2ccc(Cl)cc2)N(c2ccc(Cl)cc2)C(=O)N1CC(=O)N/N=C/C=C/c1ccc([N+](=O)[O-])o1` (stereo unspecified), the inhibition entry in the assay with MelJuSo UbG76V-YFP [1] and in the assay on MelJuSo UbG76V-YFP [4] was “inactive” each time. In addition, the inhibition result in the assay with MelJuSo UbG76V-YFP [2] and in the assay on MelJuSo UbG76V-YFP [3] was “Active” throughout.

Regarding `O=C(CCl)Nc1cccc(NC2=NS(=O)(=O)c3ccccc32)c1`, the inhibition entry in the assay on MelJuSo UbG76V-YFP [1] and in the assay on MelJuSo UbG76V-YFP [4] was “inactive” in each case. Besides, the inhibition result with MelJuSo UbG76V-YFP [2] and in the assay with MelJuSo UbG76V-YFP [3] was “Active” throughout.

As to `O=P(Oc1ccccc1)(Oc1ccccc1)OC1C=CS(=O)(=O)C1` (stereo unspecified), the IC50 with Kasumi 1 stood at 1900 nM; in assay [6], 5400 nM; in assay [7], 690 nM; in the assay on HL-60, 2500 nM; in assay [9], 610 nM; in assay [10] it was 510 nM. In addition, the IC50 with HCT-116 came to 5800 nM; in [11], 1300 nM; in the assay on CCRF-CEM it was 1800 nM; in [14], 2800 nM; in assay [21], 1700 nM. The inhibition entry (in the assay with MelJuSo UbG76V-YFP [5]; in [8]; in the assay with MelJuSo UbG76V-YFP [2]; in the assay with MelJuSo UbG76V-YFP [13]; in the assay with MelJuSo UbG76V-YFP [17]; in the assay on MelJuSo UbG76V-YFP [18]) was “Active” each time. Besides, the inhibition entry in the assay on MelJuSo UbG76V-YFP [19], in the assay with MelJuSo UbG76V-YFP [20], with MelJuSo UbG76V-YFP [3], with HEK293 and with MelJuSo UbG76V-YFP [22] was “Active” in each case. In addition, the inhibition entry (in the assay on MelJuSo UbG76V-YFP [1]; in the assay with MelJuSo UbG76V-YFP [12]; with MelJuSo UbG76V-YFP [15]; in assay [16]; in the assay on MelJuSo UbG76V-YFP [4]) was “inactive” each time.

Regarding `COc1cc(/C=C/C(=O)N2CCC=CC2=O)cc(OC)c1OC`, the inhibition entry in the assay on MelJuSo UbG76V-YFP [4] was “inactive”.

In the case of `CC(C)C[C@H](NC(=O)[C@H](Cc1ccccc1)NC(=O)c1cnccn1)B(O)O`, the inhibition entry (in [23]; with CLL; in the assay listed under Homo sapiens; in [24]; with Cancer cell lines) was “Active” each time.
